# Source: patent publication US8097656B2, “Nitrogenated trans-stilbene analogs, method for the obtention and medical applications thereof” (Dominion Pharmakine S.L, priority 2005, dated 2012)
# What was measured:
# MB16 cells = assay: MB16 hepatic metastasis test after intrasplenic injection; type: in vivo, C57BL/6J mice; conditions: 1 mg/Kg/day nasogastrically; for Reduction of the mean density of hepatic metastases: daily, vs control animals, P<0.01; for No. portal metases/No. sinusoidal metastasis (ratio in brackets) / Percentage of focal points w/cavitation (% of total no. of metastatic focal points) / No. portal metases / No. sinusoidal metastasis / Volume of hepatic metastasis (mm^3) / Hepatic focal point density (No. focal points/100 mm^3) / Metastatic cell proliferation index (% cells positive to Ki67 antigen) / Length of angiogenic vessels (μm): day 12; for No. portal metases/No. sinusoidal metastasis (ratio in brackets): control 1; for Percentage of focal points w/cavitation (% of total no. of metastatic focal points): control 13.5 ± 5.0; for No. portal metases / No. sinusoidal metastasis: control 30; for Volume of hepatic metastasis (mm^3): control 60.0 ± 7.5; for Hepatic focal point density (No. focal points/100 mm^3): control 60.0 ± 11; for Metastatic cell proliferation index (% cells positive to Ki67 antigen): control 71.0 ± 5.0; for Length of angiogenic vessels (μm): control 175.0 ± 10
# Procedure: MB16 Hepatic Metastasis Test using C57 BL/6J mice (males 6-8 weeks of age) supplied by IFFA Credo (L'Arbreole, France). The care, maintenance and experimental conditions were carried out in accordance with that which is set forth under EEC Council Directive 86/609 (OJ L 358. 1, Dec. 12, 1987) and the NIH guide for the care and use of laboratory animals (NIH publication 85-23, 1985). In the experiments with the resveratrol and azaresveratrol compounds (Table 1), the animals (10 per group) received 1 mg/Kg/day of the compounds nasogastrically every day up to the time of sacrifice. In the experiments with the JE2:2 compound (FIG. 12), one group of mice (n=10) was given an intraperitoneal injection of 0.5 mg/kg of the JE2:2 compound dissolved in 0.1 ml of PBS. The control group (n=10), was given an intraperitoneal injection of PBS. One hour later, animals were anesthetized and were intrasplenically injected with MB16 cells (3×10^5 cells/mouse). The same treatments, at the same doses, were repeated on days 2, 3, 4, 8, 9, 10 and 11 following tumor injection.
# Twelve (12) days later, the livers were removed and processed for the histological study. Firstly, they were fixed in a solution of zinc (0.5 g calcium acetate, 5 g zinc acetate, 5 g zinc chloride and 1000 ml tris buffer, pH 7.4) for 24 hours. Once fixed, they were dehydrated in alcohols of increasing concentrations, and paraffin block were included. Afterward, a minimum of nine (9) cuts 10 μm in thickness were made per liver, leaving a space of 300 μm between every 3 cuts and a 1 mm space between successive groups of 3 cuts. Once the sections had been obtained, they were processed and stained with hematoxylin-eosine. On the one hand, the number, mean diameter, area and position coordinates of each metastasis were quantified by means of an integrated image analysis system (Olympus Microimage 4.0 capture kit) connected to an Olympus BX51TF microscope. With obtained data, metastatic parameters (that is to say, the number of focal points per 100 mm^3 of hepatic tissue) and metastatic volume (that is to say, the volume of liver occupied by metastatic tissue) were calculated as described by Vidal-Vanaclocha et al. [cf. Vidal-Vanaclocha, F., Amézaga, C., Asumendi, A., Kaplanski, G. & Dinarello, C. A. “Interleukin-1 receptor blockade reduces the number and size of murine B 16 melanoma hepatic metastases”, Cancer Research, 1994, vol. 54, pp. 2667-2672]. On the other hand, more cuts were made in the same blocks, and a double marking with CD31 and desmine was performed to calculate the number and length of the angiogenic vessels within the metastases and also to study metastases according to their angiogenic pattern in portal-type expansive metastases (the angiogenic vessels surround the metastases) or sinusoidal type invasive metastases (containing an internal network of angiogenic capillaries). Another parameter that was quantified is the cavitated metastasis percentage. Lastly, immunohistochemical detection of Ki67 antigen was performed to assess the number of tumor cells which proliferated per unit of tumor surface.
# To this end, the MB16 cells were intrasplenically injected in C57BL/6J mice (3×10^5 viable cells per animal resuspended in endotoxin-free sterile saline solution), 12 days after which the capacity thereof of development metastasis was determined.
# One group of mice (n=7) were administered an intraperitoneal injection of JE2:2 (2.5 mg/kg) 1′ hour prior to tumor cell injection, and the same dose was repeated on days 2, 3, 4, 8, 9, 10 and 11 in following thereto. The group of control mice (n=7) was administered PBS.
# MB16-Luc cells = assay: Hepatic retention of luciferase-transfected MB16 cells (MB16-Luc); type: in vivo, C57BL/6J mice; conditions: 2 doses of 1 mg/kg/day nasogastrically; 18 h after intrasplenic injection; control 1.80 ± 0.23
# From the text: Test of hepatic retention of luciferase-transfected MB16 cells (MB16-Luc) (see Table 1). B16M Cells were stably transfected by lipofection as described previously (Rubio N, Martinez-Villacampa M, Blanco J. Traffic to lymph nodes of PC-3 prostate tumor cells in nude mice visualized using the luciferase gene as a tumor cell marker. Lab Invest 1998; 78:1315-1325), using plasmid pRc/cytomegalovirus-luciferase, a construct containing the Photinus pyralis luciferase gene coding sequence under transcriptional control of the cytomegalovirus promoter and the neomycin resistance gene to the G418 antibiotic (Sigma Chemicals Co.). A total of 300,000 viable B16M-Luc cells were intrasplenically injected into C57BL/6J mice (10 mice per group) which had previously been nasogastrically administered 2 doses of 1 mg/kg/day of compound to be tested. One group of mice received resveratrol, the other group of mice received azaresveratrol. […] Production of light was measured using a luminometer designed to read individual samples tubes (bioorbit, LKB Wallac; Turku, Finland) after the addition of 100 μl of luciferase assay reagent to 20 μl of each liver homogenate. […] Linearity and sensitivity of light detection in liver homogenates and influence of hepatic microenvironment on luciferase activity of B16M-Luc were also evaluated as described previously (Rubio et al, 1998).
Compound,Reduction of the mean density of hepatic metastases (MB16 cells) [%],No. portal metases/No. sinusoidal metastasis (ratio in brackets) (MB16 cells),Percentage of focal points w/cavitation (% of total no. of metastatic focal points) (MB16 cells) [%],No. portal metases (MB16 cells),No. sinusoidal metastasis (MB16 cells),Volume of hepatic metastasis (mm^3) (MB16 cells),Hepatic focal point density (No. focal points/100 mm^3) (MB16 cells),Metastatic cell proliferation index (% cells positive to Ki67 antigen) (MB16 cells) [%],Length of angiogenic vessels (μm) (MB16 cells),Hepatic retention of MB16 Luc cells (No. cells × 10^6) (MB16-Luc cells)
"Oc1ccc(/N=C/c2cc(O)cc(O)c2)cc1 [azaresveratrol, 5-((E)-(4-Hydroxyphenylimino)methyl)benzene-1,3-diol]",46,4.09,40.0 ± 10,22.5,5.5,24.0 ± 9.0,28.0 ± 10,35.0 ± 10,88.0 ± 21,0.98 ± 0.24
"Oc1ccc(C=Cc2cc(O)cc(O)c2)cc1 [resveratrol, reference compound]",50,3,41.5 ± 11,22.5,7.5,18.7 ± 7.5,30.0 ± 11,40.0 ± 5.0,88.0 ± 23,1.05 ± 0.3
